{
  "source": "the supplement of paper PMC11208160",
  "assay": "recombinant barcode read abundance after kanamycin selection (control-corrected) (log10(CPM+1)); higher = more efficient recombination; sequences stand for … in AGTGCAGAGAAAATCGGCCAGTTTTCTCTGCCTGCAGTCCGCATGCCGT…AGATTTATGCAGCGGACTGCCTTTCTCCCAAAGTGATAAACCGGACAGTATCATGGACCGGTTTTCCCGGTAATCCGTATTTGCAAGGTTGGTTTCACT; site = the 11-nt target",
  "experimental": "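Pooled E. coli target-specificity screen for the IS621 bridge recombinase. Each library plasmid pairs an 11-nt target (CT core) with a bridge RNA whose target-binding loop (9-nt LTG + 4-nt RTG) is reprogrammed; the rest of the 177-nt WT IS621 bridge RNA scaffold is fixed. The plasmid is co-electroporated with a WT donor plasmid; recombinase is induced with 0.1 mM IPTG and recombinants are selected on kanamycin. Recombinant barcodes are sequenced, converted to CPM, averaged over two biological replicates and corrected by the unselected control CPM. Molecule = full bridge RNA written as DNA: LTG = specificity nt 1-9, RTG = reverse complement of specificity nt 8-11, in the WT scaffold.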",
  "data": [
    {"sequence": "AATTTGACTTGGGTTCTAACCTGTTGCCT (site AATTTGACTAG)", "values": [
      {"measurement": "recombinant barcode read abundance (log10)", "value": 0.576}
    ]},
    {"sequence": "ACAAGAGCTTGGGTTCTAACCTGTTGCCT (site ACAAGAGCTAG)", "values": [
      {"measurement": "recombinant barcode read abundance (log10)", "value": 1.07}
    ]},
    {"sequence": "ACAAGAGCTTGGGTTCTAACCTGTTGCCT (site ACCAGAGCTAG)", "values": [
      {"measurement": "recombinant barcode read abundance (log10)", "value": 0.266}
    ]},
    {"sequence": "ACAAGAGCTTGGGTTCTAACCTGTTGCCT (site ACGAGAGCTAG)", "values": [
      {"measurement": "recombinant barcode read abundance (log10)", "value": 0.0837}
    ]},
    {"sequence": "ACAAGAGCTTGGGTTCTAACCTGTTGCCT (site ACTAGAGCTAG)", "values": [
      {"measurement": "recombinant barcode read abundance (log10)", "value": 0.133}
    ]},
    {"sequence": "ACAATACCTTGGGTTCTAACCTGTTGCCG (site ACAATACCTCG)", "values": [
      {"measurement": "recombinant barcode read abundance (log10)", "value": 0.408}
    ]},
    {"sequence": "ACAATACCTTGGGTTCTAACCTGTTGCCG (site ACAATAGCTAG)", "values": [
      {"measurement": "recombinant barcode read abundance (log10)", "value": 0.51}
    ]},
    {"sequence": "ACAATCTCTTGGGTTCTAACCTGTTGCTC (site ACAATCTCTGA)", "values": [
      {"measurement": "recombinant barcode read abundance (log10)", "value": 1.22}
    ]},
    {"sequence": "ACAATCTCTTGGGTTCTAACCTGTTGCTC (site CACCAGACTTG)", "values": [
      {"measurement": "recombinant barcode read abundance (log10)", "value": 0.066}
    ]},
    {"sequence": "ACACACCCTTGGGTTCTAACCTGTTGCGG (site ACACACCCTCC)", "values": [
      {"measurement": "recombinant barcode read abundance (log10)", "value": 2.53}
    ]},
    {"sequence": "ACACACCCTTGGGTTCTAACCTGTTGCGG (site ACGCACGCTCC)", "values": [
      {"measurement": "recombinant barcode read abundance (log10)", "value": 0.0353}
    ]},
    {"sequence": "ACACGAGCTTGGGTTCTAACCTGTTGCAG (site ACACGAGCTCT)", "values": [
      {"measurement": "recombinant barcode read abundance (log10)", "value": 1.3}
    ]},
    {"sequence": "ACACGAGCTTGGGTTCTAACCTGTTGCAG (site TGCGATACTAA)", "values": [
      {"measurement": "recombinant barcode read abundance (log10)", "value": 0.326}
    ]},
    {"sequence": "ACACGGACTTGGGTTCTAACCTGTTGCTA (site ACACGGACTTA)", "values": [
      {"measurement": "recombinant barcode read abundance (log10)", "value": 1.38}
    ]},
    {"sequence": "ACACGGACTTGGGTTCTAACCTGTTGCTA (site GTGGTACCTAT)", "values": [
      {"measurement": "recombinant barcode read abundance (log10)", "value": 0.0282}
    ]},
    {"sequence": "ACACTCCCTTGGGTTCTAACCTGTTGCCT (site AAGCTCCCTAG)", "values": [
      {"measurement": "recombinant barcode read abundance (log10)", "value": 0.415}
    ]},
    {"sequence": "ACACTCCCTTGGGTTCTAACCTGTTGCCT (site ACACTCCCTAG)", "values": [
      {"measurement": "recombinant barcode read abundance (log10)", "value": 0.294}
    ]},
    {"sequence": "ACACTCCCTTGGGTTCTAACCTGTTGCTG (site ACACACTCTCA)", "values": [
      {"measurement": "recombinant barcode read abundance (log10)", "value": 0.104}
    ]},
    {"sequence": "ACACTCCCTTGGGTTCTAACCTGTTGCTG (site ACACTCCCTCA)", "values": [
      {"measurement": "recombinant barcode read abundance (log10)", "value": 2.14}
    ]},
    {"sequence": "ACACTGTCTTGGGTTCTAACCTGTTGCGG (site ACAATGTCTCC)", "values": [
      {"measurement": "recombinant barcode read abundance (log10)", "value": 0.0253}
    ]},
    {"sequence": "ACACTGTCTTGGGTTCTAACCTGTTGCGG (site ACACTGTCTCC)", "values": [
      {"measurement": "recombinant barcode read abundance (log10)", "value": 1.49}
    ]},
    {"sequence": "ACACTGTCTTGGGTTCTAACCTGTTGCGG (site ACAGTGTCTCC)", "values": [
      {"measurement": "recombinant barcode read abundance (log10)", "value": 0.379}
    ]},
    {"sequence": "ACACTGTCTTGGGTTCTAACCTGTTGCGG (site ACATTGTCTCC)", "values": [
      {"measurement": "recombinant barcode read abundance (log10)", "value": 0.429}
    ]},
    {"sequence": "ACAGAGGCTTGGGTTCTAACCTGTTGCCG (site ACAGAGGCTCG)", "values": [
      {"measurement": "recombinant barcode read abundance (log10)", "value": 1.12}
    ]},
    {"sequence": "ACAGAGGCTTGGGTTCTAACCTGTTGCCG (site ACTCAGGCTCG)", "values": [
      {"measurement": "recombinant barcode read abundance (log10)", "value": 0.155}
    ]},
    {"sequence": "ACAGCCGCTTGGGTTCTAACCTGTTGCCT (site ACAGACGCTAG)", "values": [
      {"measurement": "recombinant barcode read abundance (log10)", "value": 0.221}
    ]},
    {"sequence": "ACAGCCGCTTGGGTTCTAACCTGTTGCCT (site ACAGCCGCTAG)", "values": [
      {"measurement": "recombinant barcode read abundance (log10)", "value": 1.46}
    ]},
    {"sequence": "ACAGCCGCTTGGGTTCTAACCTGTTGCCT (site ACAGGCGCTAG)", "values": [
      {"measurement": "recombinant barcode read abundance (log10)", "value": 0.108}
    ]},
    {"sequence": "ACAGCCGCTTGGGTTCTAACCTGTTGCCT (site ACAGTCGCTAG)", "values": [
      {"measurement": "recombinant barcode read abundance (log10)", "value": 0.118}
    ]},
    {"sequence": "ACAGCTTCTTGGGTTCTAACCTGTTGCCT (site ACAGCTACTAG)", "values": [
      {"measurement": "recombinant barcode read abundance (log10)", "value": 0.0838}
    ]},
    {"sequence": "ACAGCTTCTTGGGTTCTAACCTGTTGCCT (site ACAGCTTCTAG)", "values": [
      {"measurement": "recombinant barcode read abundance (log10)", "value": 1.53}
    ]},
    {"sequence": "ACAGGCGCTTGGGTTCTAACCTGTTGCCT (site ACAGACGCTAG)", "values": [
      {"measurement": "recombinant barcode read abundance (log10)", "value": 0.858}
    ]},
    {"sequence": "ACAGGCGCTTGGGTTCTAACCTGTTGCCT (site ACAGCCGCTAG)", "values": [
      {"measurement": "recombinant barcode read abundance (log10)", "value": 0.617}
    ]},
    {"sequence": "ACAGGCGCTTGGGTTCTAACCTGTTGCCT (site ACAGGCGCTAG)", "values": [
      {"measurement": "recombinant barcode read abundance (log10)", "value": 0.673}
    ]},
    {"sequence": "ACAGGCGCTTGGGTTCTAACCTGTTGCCT (site ACAGTCGCTAG)", "values": [
      {"measurement": "recombinant barcode read abundance (log10)", "value": 0.0488}
    ]},
    {"sequence": "ACAGGTGCTTGGGTTCTAACCTGTTGCCT (site ACAGGTGCTAG)", "values": [
      {"measurement": "recombinant barcode read abundance (log10)", "value": 1.98}
    ]},
    {"sequence": "ACAGGTGCTTGGGTTCTAACCTGTTGCCT (site ACATGTGCTAG)", "values": [
      {"measurement": "recombinant barcode read abundance (log10)", "value": 0.0807}
    ]},
    {"sequence": "ACAGTAGCTTGGGTTCTAACCTGTTGCTG (site ACAATAGCTCA)", "values": [
      {"measurement": "recombinant barcode read abundance (log10)", "value": 0.181}
    ]},
    {"sequence": "ACAGTAGCTTGGGTTCTAACCTGTTGCTG (site ACACTAGCTCA)", "values": [
      {"measurement": "recombinant barcode read abundance (log10)", "value": 0.0586}
    ]},
    {"sequence": "ACAGTAGCTTGGGTTCTAACCTGTTGCTG (site ACAGTAGCTCA)", "values": [
      {"measurement": "recombinant barcode read abundance (log10)", "value": 1.87}
    ]},
    {"sequence": "ACAGTAGCTTGGGTTCTAACCTGTTGCTG (site ACATTAGCTCA)", "values": [
      {"measurement": "recombinant barcode read abundance (log10)", "value": 0.0402}
    ]}
  ]
}
